The values that follow come from patent US20090136460A1 (VANDERBILT UNIVERSITY, priority 2007, published 2009).

Read-outs that look alike come from different tables or passages of the source. Bounds are passed on as bounds.

In experiment [1] the target is T1, A2A adenosine receptor (Mus musculus, UniProt Q60612).
T1 construct: from tissue; host or cells: isolated perfused C57Bl/6 mouse heart (my inference)
T1 sequence (Q60612 1-326): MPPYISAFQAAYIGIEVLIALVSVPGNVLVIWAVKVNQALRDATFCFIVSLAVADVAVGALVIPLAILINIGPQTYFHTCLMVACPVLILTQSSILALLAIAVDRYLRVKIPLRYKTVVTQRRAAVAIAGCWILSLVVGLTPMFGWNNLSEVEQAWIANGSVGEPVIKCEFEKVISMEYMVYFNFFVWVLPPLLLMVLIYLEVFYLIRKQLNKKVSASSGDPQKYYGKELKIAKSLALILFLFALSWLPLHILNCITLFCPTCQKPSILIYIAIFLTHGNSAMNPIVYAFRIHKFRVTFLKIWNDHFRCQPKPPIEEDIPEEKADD
In words: Potency at mouse receptor, current study, in A2A of Table 1. To be noted: data from the current study (no reference). The class given is cell-based. The text has this:
Measurement of cAMP accumulation.

The test system of experiment [2] is eEPC adhesion to MCEC-1 cells. In words: eEPC adhesion to MCEC-1 cells under static conditions. Type of experiment: cell-based, mouse. To be noted: for IC50: read-out: IC50, inhibition of NECA-induced eEPC adhesion.
The target of experiment [3] is A2A adenosine receptor (Cavia porcellus, UniProt P46616). To be noted: [15] Martin et al. (1993); NECA-stimulated atrium (A1) or aorta (A2A); cited from earlier work.
Experiment [4] has as its system A2B adenosine receptor. The note with it: [15] Martin et al. (1993); NECA-stimulated atrium (A1) or aorta (A2A); cited from earlier work.
The target of the next experiment is T2, A2B receptors (Mus musculus, UniProt Q60614).
T2 sequence (Q60614 1-332): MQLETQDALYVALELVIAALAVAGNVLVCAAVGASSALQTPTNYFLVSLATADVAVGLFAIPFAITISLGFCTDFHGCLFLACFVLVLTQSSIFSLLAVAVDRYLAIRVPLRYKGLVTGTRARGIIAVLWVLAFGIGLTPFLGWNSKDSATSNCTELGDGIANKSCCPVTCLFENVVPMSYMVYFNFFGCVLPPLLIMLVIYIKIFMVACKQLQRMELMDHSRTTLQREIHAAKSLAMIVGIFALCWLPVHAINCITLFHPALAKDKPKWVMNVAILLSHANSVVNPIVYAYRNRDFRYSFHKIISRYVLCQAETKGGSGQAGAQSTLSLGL
In words: NECA-stimulated cAMP accumulation in MCEC-1 cells. The note with it: data from the current study (no reference); for Affinity or potency (Ki, KD, KB, IC50 or EC50) at A2B, mouse (m), current study: 95% CI in parentheses.

Another experiment deals with T3, A1 receptors (Mus musculus, UniProt Q60612).
T3 sequence (Q60612 1-326): T1 sequence (Q60612 1-326)
Nature of the experiment: Inhibition of forskolin-stimulated cAMP accumulation in mouse eEPCs. To be noted: read-out: EC50, antagonism of the action of CPA on forskolin-stimulated cAMP accumulation; eEPCs; 10 nmol/L CPA; 1 μmol/L forskolin.

The subject of another experiment is HMVEC-c cells. Nature of the experiment: cAMP accumulation in HMVEC-c cells. Type of experiment: cell-based, human. An excerpt:
Primary cultures of human cardiac microvascular endothelial cells (HMVEC-c) were obtained from Cambrex (Walkersville, Md.), and cultured using EGM™-2 MV growth medium (Cambrex). HMVEC-c from passages 2 to 5 were used. Measurement of cAMP accumulation.

The test system of experiment [5] is eEPC adhesion to MCEC-1 cells. Nature of the experiment: eEPC adhesion to MCEC-1 cells under flow conditions. The class given is cell-based, mouse. The note with it: 10 μmol/L; shear stress 0.75 and 1 dyne/cm^2; 10 minutes. The procedure: Analysis of cell adhesion under flow conditions. Adhesion assays under flow conditions were performed using a parallel plate flow chamber (Glycotech, Rockville, Md.) following the manufacturer's instructions. Cell suspension or cell-free medium were drown into chambers by a syringe pump (Model 44, Harvard Apparatus, Inc., Holliston, Mass.) at a constant rate to generate a desired wall shear stress (τ, dynes/cm2) using the formula τ=6Qμ/a^2b, where Q is flow rate, μ is medium viscosity, b is channel width, and a is channel height. […] Cell adhesion was determined by analysis of digitized video recordings using NIH Image software. Cell-based P-selectin enzyme-linked immunoassay To analyze cell-surface P-selectin expression, the inventors used a previously published method (Cleator et al., 2005). […] After washing and blocking, cells were incubated with 5 μg/mL rat anti-mouse CD62P antibodies (Fitzgerald Industries) or rat isotype-matched control antibody (BD Biosciences) for 1 hour. After washing, a secondary goat anti-rat horseradish peroxidase-conjugated antibody (Jackson ImmunoResearch, West Grove, Pa.) was added for 1 hour followed by washing and then analyzed at […] after addition of substrate.

For another experiment, the system named is eEPCs. Nature of the experiment: cAMP accumulation in mouse eEPCs (forskolin, NECA). The note with it: FIG. 1B.
For experiment [6], the system named is CE-EPC adhesion to HMVEC-c cells. Nature of the experiment: Adhesion of human culture-expanded EPCs (CE-EPCs) to HMVEC-c cells. The note with it: increasing concentrations.
For experiment [7], the target named is T4, A2B adenosine receptor (Homo sapiens, UniProt P29275).
T4 sequence (P29275 1-332): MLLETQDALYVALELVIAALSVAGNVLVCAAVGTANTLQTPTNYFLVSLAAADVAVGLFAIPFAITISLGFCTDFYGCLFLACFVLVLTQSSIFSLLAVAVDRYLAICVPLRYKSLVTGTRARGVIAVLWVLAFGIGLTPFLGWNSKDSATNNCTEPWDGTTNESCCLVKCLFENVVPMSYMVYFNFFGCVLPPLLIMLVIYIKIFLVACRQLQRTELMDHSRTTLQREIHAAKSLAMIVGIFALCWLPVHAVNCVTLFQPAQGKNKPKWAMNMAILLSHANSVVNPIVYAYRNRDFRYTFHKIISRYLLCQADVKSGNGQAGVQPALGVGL
To be noted: [11] Feoktistov and Biaggioni (1998); NECA-stimulated HEL cells; cited from earlier work.

Experiment [8] concerns the target A2A adenosine receptor (Rattus norvegicus, UniProt P30543). To be noted: cited from earlier work.
Experiment [9] addresses A2A adenosine receptor (Mus musculus, UniProt Q60613). To be noted: [13] Lopes et al. (2004), striatum, radioligand [3H]SCH58261, cited from earlier work.

Chain of A2A adenosine receptor (Mus musculus, UniProt Q60613) (Q60613 whole entry): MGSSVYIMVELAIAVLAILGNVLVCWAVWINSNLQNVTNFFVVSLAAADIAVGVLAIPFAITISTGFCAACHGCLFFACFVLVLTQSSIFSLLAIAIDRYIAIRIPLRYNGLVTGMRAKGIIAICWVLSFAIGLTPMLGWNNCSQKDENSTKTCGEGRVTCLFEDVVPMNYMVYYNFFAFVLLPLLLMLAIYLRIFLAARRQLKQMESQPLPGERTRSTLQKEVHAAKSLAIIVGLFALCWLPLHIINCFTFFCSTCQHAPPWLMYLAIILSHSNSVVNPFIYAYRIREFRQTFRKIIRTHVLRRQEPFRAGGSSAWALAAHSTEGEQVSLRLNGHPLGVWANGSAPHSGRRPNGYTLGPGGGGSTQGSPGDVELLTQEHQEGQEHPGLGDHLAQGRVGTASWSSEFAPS
Chain of A2A adenosine receptor (Cavia porcellus, UniProt P46616) (P46616 whole entry): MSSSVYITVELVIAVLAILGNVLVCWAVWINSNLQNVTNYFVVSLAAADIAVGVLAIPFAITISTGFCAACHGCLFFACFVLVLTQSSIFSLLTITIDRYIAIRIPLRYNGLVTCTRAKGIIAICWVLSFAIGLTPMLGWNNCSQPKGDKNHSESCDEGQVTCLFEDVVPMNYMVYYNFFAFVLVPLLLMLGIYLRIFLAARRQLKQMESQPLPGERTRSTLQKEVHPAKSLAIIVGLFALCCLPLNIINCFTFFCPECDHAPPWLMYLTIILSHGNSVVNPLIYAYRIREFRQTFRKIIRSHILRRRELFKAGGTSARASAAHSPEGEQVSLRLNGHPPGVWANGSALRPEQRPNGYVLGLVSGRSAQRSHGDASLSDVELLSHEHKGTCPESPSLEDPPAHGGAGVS
Chain of A2A adenosine receptor (Rattus norvegicus, UniProt P30543) (P30543 whole entry): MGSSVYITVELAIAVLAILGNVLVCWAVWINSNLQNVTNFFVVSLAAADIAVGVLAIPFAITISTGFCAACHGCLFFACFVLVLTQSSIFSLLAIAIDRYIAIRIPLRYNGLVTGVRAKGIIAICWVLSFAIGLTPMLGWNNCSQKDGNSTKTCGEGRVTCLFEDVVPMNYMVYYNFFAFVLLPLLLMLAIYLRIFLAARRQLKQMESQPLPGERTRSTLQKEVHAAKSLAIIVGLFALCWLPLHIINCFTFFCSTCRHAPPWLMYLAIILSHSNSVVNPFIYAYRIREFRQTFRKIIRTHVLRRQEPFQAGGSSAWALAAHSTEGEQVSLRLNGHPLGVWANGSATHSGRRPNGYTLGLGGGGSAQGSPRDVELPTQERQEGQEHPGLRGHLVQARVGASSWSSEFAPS

For `Cn1cnc2c(NC3CC4CCC3C4)ncnc21` (stereo not shown) [N-0861], at A2A adenosine receptor [1], the “Affinity or potency at A2A, mouse (m), current study, log” value is listed as −6.3 log mol/L. Also, in [2] (1 μmol/L NECA), the 50% inhibitory concentration (IC50) is 1500 nM. On A2A adenosine receptor [3], the “Affinity or potency at A2A, guinea pig (gp)” value is recorded as 575 (±86) nmol/L and the “Affinity or potency at A2A, guinea pig (gp), log” value was 6.2 log mol/L. Further, in the experiment with A2B adenosine receptor [4], the “Affinity or potency at A2B, guinea pig (gp)” value was “gp 56,200 nmol/L” and the “Affinity or potency at A2B, guinea pig (gp), log” value is “(±11,400), −4.3 [15] log mol/L”. Also, at A2B receptors, the “Affinity or potency at A2B, mouse (m), current study, log” value is 65,610); −4.4 log mol/L and the “Affinity or potency (Ki, KD, KB, IC50 or EC50) at A2B, mouse (m), current study” value was “m 39,350 (23,600- nmol/L”. For the same compound, at A1 receptors, the half-maximal effective concentration (EC50) was found to be 511 nM.

As to `CCNC(=O)[C@H]1O[C@@H](n2cnc3c(N)ncnc32)[C@H](O)[C@@H]1O` [NECA, 5′-N-ethylcarboxamidoadenosine], the “Stimulation of cAMP accumulation” value with HMVEC-c cells is recorded as 5.1±0.1 fold. For the same compound, the “Time of half-maximal effect on eEPC adhesion” value in experiment [2] (1 μmol/L NECA) was 5 min. The EC50 in [2] (Mus musculus, 0.5 h, 30 minutes, read-out: EC50, increase of eEPC adhesion) was 139 nM. The same compound showed an eEPC adhesion in experiment [2] (maximal, concentration-dependent, 30 minutes, basal 4.5±0.3%) of 21.3±1.4%. Further, the “Effect on eEPC adhesion under laminar flow” value in [5] is recorded as “significantly increased”. For the same compound, in the experiment on eEPCs, the “Effect on cAMP in eEPCs” value is given as “did not elevate cAMP”. The “Effect on CE-EPC adhesion to HMVEC-c cells” value in experiment [6] was “stimulated CE-EPC adhesion”.

On to `Nc1nc2c(cnn2CCc2ccccc2)c2nc(-c3ccco3)nn12` [SCH58261, 5-amino-7-(phenylethyl)-2-(2-furyl)-pyrazolo-[4,3-e]-1,2,4-triazolo-[1,5-c]-pyrimidine], for which the IC50 in [2] (Mus musculus) was found to be 1700 nM. Also, the “Effect on NECA-induced eEPC adhesion at lower concentrations” value in [2] (concentrations that selectively block A2A receptors, 1 μmol/L NECA) is “no effect”. At A2B adenosine receptor [7], the “Affinity or potency at A2B, human (h)” value was above 100 nM and the “Affinity or potency at A2B, human (h), log” value was above −5 log mol/L. For the same compound, the “Affinity or potency at A2A, rat (r), log” value at A2A adenosine receptor [8] is “r 2.3 (2-2.7); −8.6 [12] log mol/L”. Moreover, at A2A adenosine receptor [9], the “Affinity or potency at A2A, mouse (m), log” value is −9.0 log mol/L. Moreover, at A2A adenosine receptor [9] (read-out: Affinity or potency at A2A, mouse (m)), the Ki is 1 nM. Further, on A2B receptors, the “Affinity or potency at A2B, mouse (m), current study, log” value was 2,486); −5.7 log mol/L and the “Affinity or potency (Ki, KD, KB, IC50 or EC50) at A2B, mouse (m), current study” value is on record as “m 1,868 (1,404- nmol/L”.

A word on the IC50: it is the midpoint of a concentration-inhibition curve. Usually EC50 stands for the concentration giving half of the maximal effect.
